Results published in patent US20090053192A1, “TISSUE-NONSPECIFIC ALKALINE PHOSPHATASE (TNAP) ACTIVATORS AND USES THEREOF” (BURNHAM INSTITUTE FOR MEDICAL RESEARCH, priority 2007, published 2009).

Experiments:
[1] = molecular target: T1, TNAP (Homo sapiens, UniProt P05186); test: luminescent CDP-star-based TNAP assay, MLSMR screen (PubChem AID 518)
T1 sequence (P05186 18-502 limits assumed): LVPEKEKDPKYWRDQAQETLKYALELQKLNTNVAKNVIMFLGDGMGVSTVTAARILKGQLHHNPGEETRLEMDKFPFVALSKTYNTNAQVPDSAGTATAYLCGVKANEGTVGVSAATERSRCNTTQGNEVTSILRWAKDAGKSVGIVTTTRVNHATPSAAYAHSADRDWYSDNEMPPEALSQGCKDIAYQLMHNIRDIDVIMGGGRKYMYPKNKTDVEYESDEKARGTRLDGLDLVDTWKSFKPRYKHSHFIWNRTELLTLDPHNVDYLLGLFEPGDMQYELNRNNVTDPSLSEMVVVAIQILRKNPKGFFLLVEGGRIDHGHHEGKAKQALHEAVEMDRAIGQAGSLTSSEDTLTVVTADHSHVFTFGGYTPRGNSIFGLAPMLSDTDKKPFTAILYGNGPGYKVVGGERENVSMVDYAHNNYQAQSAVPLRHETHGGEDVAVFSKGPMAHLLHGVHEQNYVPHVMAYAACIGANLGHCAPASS

[2] = molecular target: T1, TNAP; test: optimized TNAP activation assay, CAPS buffer pH 9.8, CDP-Star luminescence; format: biochemical
Procedure: The activity of TNAP (1/800) was measured in 50 mM CAPS, pH 9.8, containing 1 mM MgCl2, 20 uM ZnCl2 and varied concentrations of CDP-Star. The luminescence signal was obtained using 384-well white small-volume plates (Greiner 784075) on a PE Envision plate reader. Experimental data were analyzed using the Michaelis-Menten equation.
The activity of TNAP (1/800) was measured in 50 mM CAPS, pH 9.8, containing 1 mM MgCl2, 20 μM ZnCl2 and 25 μM CDP-Star® in the presence of serially diluted DEA, pH adjusted to 9.8. The luminescence signal, obtained using 384-well white small-volume plate (Greiner 784075) on a PE Envision plate reader, was fitted to 4-parameter sigmoidal equation. The best-fit curve is shown as a solid line.
The luminescent assay was further optimized to ensure its maximum sensitivity to compounds activating TNAP. […] This assay can provide a more accurate measure of phosphatase activity, as opposed to transphosphorylation, activity that might be more relevant to in vivo conditions. The previously utilized assay was performed in the presence DEA at a concentration of CDP-star equal to its Km value. However, the appropriate concentration of the components was needed for the new buffer. TNAP activity vs. its concentration was tested as a function of TNAP concentrations (FIG. 7).
It was observed that TNAP activity was linearly dependent over an extended range of TNAP concentrations. A 1/800 concentration of TNAP was used for further work; this concentration is 1315-fold above the limit of detection of the assay. To ensure that substrate concentration is correctly adjusted in the new assay, TNAP activity was tested in the presence of varied CDP-star® concentrations (FIG. 8). It was decided to fix the concentration of CDP-star® at 25 uM (˜Km) to provide enough sensitivity even for compounds competitive with the CDP-star® substrate. In the next experiment, the activation of TNAP was tested with DEA (FIG. 9).
600 mM DEA (pH 9.8) was chosen as the positive control for TNAP activation screening. […]

[3] = calculated as (100-X)/100, where X is % inhibition, luminescence
[4] = TNAP 1/800, 50 mM CAPS pH 9.8, Michaelis-Menten

Row | Structure (SMILES) | TNAP Activation Factor [1, 3] | other results
1 | COc1ccc(CCNC(=O)c2cc(-c3ccccc3O)[nH]n2)cc1OC [Compound 12] | 1.9 | 
2 | CC(C)n1c(NCc2nc3ccccc3n2C)nc2ccccc21 [drawing 45, 1-isopropyl-N-[(1-methyl-1H-benzo[d]imidazol-2-yl)methyl]-1H-benzo[d]imidazol-2-amine] |  | TNAP Activation Factor ([1]; Table 2): 2.0
3 | CCN(CC)c1ccc2cc(-c3nc4ccccc4n3C)c(=O)oc2c1 [Compound 4] | 2.8 | 
4 | N=c1c2c(-c3ccccc3)c(-c3ccccc3)n(Cc3ccccc3)c2ncn1CCCn1ccnc1 [drawing 64, 3-[3-(1H-imidazol-1-yl)propyl]-7-benzyl-5,6-diphenyl-3H-pyrrolo[2,3-d]pyrimidin-4(7H)-imine] |  | TNAP Activation Factor ([1]; Table 3): 4.3
5 | COc1ccc(CCNC(=O)c2cc(-c3ccccc3O)[nH]n2)cc1OC [drawing 75, N-(3,4-dimethoxyphenethyl)-5-(2-hydroxyphenyl)-1H-pyrazole-3-carboxamide] |  | TNAP Activation Factor ([1]; Table 3): 1.9
6 | OCCN1CCOCCN(CCO)CCN(CCO)CC1 [Compound 10] | 1.9 | 
7 | OCCCN1c2ccccc2Nc2nnc(-c3ccccc3)cc21 [drawing 70, 3-(3-phenylpyridazino[3,4-b]quinoxalin-5(10H)-yl)propan-1-ol] |  | TNAP Activation Factor ([1]; Table 3): 1.5
8 | C1CCC(c2nn3c(-c4[nH]nc5c4CCC5)nnc3s2)CC1 [Compound 26] | 1.5 | 
9 | c1nc(-c2[nH]nc3c2CCC3)n2nc(C3CCCCC3)sc12 [6-cyclohexyl-3-(2,4,5,6-tetrahydrocyclopenta[c]pyrazol-3-yl)-[1,2,4]triazole[3,4-b][1,3,4]thiadiazole] |  | TNAP Activation Factor ([1]; Table 3): 1.5
10 | Cc1cc(C2N=C(N)Nc3nc4ccccc4n32)c(C)n1-c1ccccc1Cl (centres unmarked) [drawing 66] |  | TNAP Activation Factor ([1]; Table 3): 2.2
11 | COC1(c2ccc(Cl)c(OP(=O)([O-])[O-])c2)OOC12C1CC3CC2CC(Cl)(C3)C1.[Na+].[Na+] (centres unmarked) [CDP-star, Disodium 2-chloro-5-(4-methoxyspiro{1,2-dioxetane-3,2′-(5′-chloro)-ricyclo[3.3.1.13,7]decan}-4-yl)-1-phenyl phosphate] |  | Km [2, 4]: 21.9 ± 3.4 µM; Vmax [2, 4]: 10300±408 RLU
12 | O=C(CN1C(=O)CCC1=O)Nc1nc(-c2ccccn2)cs1 [Compound 9] | 2.0 | 
13 | COc1cccc(N(C(=O)c2cc[nH]n2)C2(C(=O)Nc3c(C)cccc3C)CCCCC2)c1 [Compound 23] | 1.6 | 
14 | CCc1ccc(-c2nc(CN3CCC(C(=O)NCCN(CC)c4ccccc4)CC3)c(C)o2)cc1 [Compound 22] | 1.6 | 
15 | OCCNCCO [DEA, diethanolamine] |  | Maximal activation, higher activity than in the absence of DEA ([2]; TNAP 1/800, 25 μM CDP-Star, pH 9.8): 9.4 fold
16 | Oc1c(C(c2ccccn2)N2CCOCC2)ccc2cccnc12 (centres unmarked) [drawing 68, 7-[morpholino(pyridin-2-yl)methyl]quinolin-8-ol] |  | TNAP Activation Factor ([1]; Table 3): 1.7
17 | OCCN(CCO)c1nc(N2CCCCC2)c2nc(N(CCO)CCO)nc(N3CCCCC3)c2n1 [2,2′,2″,2′″-[4,8-di(piperidin-1-yl)pyrimido[5,4-d]pyrimidine-2,6-diyl]bis(azanetriyl)tetraethanol] |  | TNAP Activation Factor ([1]; Table 3): 1.6
18 | Oc1c(C(c2ccccn2)N2CCOCC2)ccc2cccnc12 (centres unmarked) [Compound 15] | 1.7 | 
19 | O=C(CN(Cc1ccco1)C(=O)CNS(=O)(=O)c1ccc(F)cc1)NCc1ccc(F)cc1 [drawing 76, N-[2-(4-fluorobenzylamino)-2-oxoethyl]-2-(4-fluorphenylsulfonamido)-N-(furan-2-ylmethyl)acetamide] |  | TNAP Activation Factor ([1]; Table 3): 1.7
20 | O=C(CN1C(=O)CCC1=O)Nc1nc(-c2ccccn2)cs1 [drawing 29, 2-(2,5-dioxopyrrolidin-1-yl)-N-[4-(pyridine-2-yl)thiazol-2-yl]acetamide] |  | TNAP Activation Factor ([1]; Table 1): 2.0
21 | OCCN1CCOCCN(CCO)CCN(CCO)CC1 [drawing 74, 2,2′,2″-(1-oxa-4,7,10-triazacyclododecane-4,7,10-triyl)ethanol] |  | TNAP Activation Factor ([1]; Table 3): 1.9
22 | Cc1nn2c(O)cc(C(C)(C)C)nc2c1-c1ccccc1 [Compound 13] | 1.8 | 
23 | NC1=NC(c2cn(-c3ccccc3)nc2-c2cccs2)n2c(nc3ccccc32)N1 (centres unmarked) [drawing 72] |  | TNAP Activation Factor ([1]; Table 3): 1.5
24 | Cc1nn2c(O)cc(C(C)(C)C)nc2c1-c1ccccc1 [drawing 67, 5-tert-butyl-2-methyl-3-phenylpyrazolo[1,5-a]pyrimidin-7-ol] |  | TNAP Activation Factor ([1]; Table 3): 1.8
25 | O=C(CN(Cc1ccco1)C(=O)CNS(=O)(=O)c1ccc(F)cc1)NCc1ccc(F)cc1 [Compound 16] | 1.7 | 
26 | Clc1ccc(COC(Cn2ccnc2)c2ccc(Cl)cc2Cl)c(Cl)c1 (centres unmarked) [Compound 17] | 1.7 | 
27 | Nc1[nH]nc2nc(NCc3ccccc3)c3c(c12)CCN(Cc1ccccc1)C3 [drawing 47, N^5,7-dibenzyl-6,7,8,9-tetrahydro-2H-pyrazolo[3,4-c][2,7]napythyridine-1,5-diamine] |  | TNAP Activation Factor ([1]; Table 2): 1.9
28 | O=C(Nc1cccc(OC(F)(F)F)c1)c1ccc(Br)o1 [Compound 19] | 1.6 | 
29 | OCCN(CCO)c1cc2c(N3CCCCC3)nc(N(CCO)CCO)nc2c(N2CCCCC2)n1 [Compound 18] | 1.6 | 

Further lines, with some results ahead:

Row | TNAP Activation Factor [1, 3] | Structure (SMILES) | other results
30 | 1.5 | NC1=NC(c2cn(-c3ccccc3)nc2-c2cccs2)n2c(nc3ccccc32)N1 (centres unmarked) [Compound 28] | 
31 | 4.3 | N=c1c2c(-c3ccccc3)c(-c3ccccc3)n(Cc3ccccc3)c2ncn1CCCn1ccnc1 [Compound 3] | 
32 | 1.5 | OCCCN1c2ccccc2Nc2nnc(-c3ccccc3)cc21 [Compound 25] | 
33 | 1.6 | O=S(=O)(CCc1ncc(-c2ccccc2)o1)c1ccc2ccccc2c1 [Compound 21] | 
34 | 2.0 | CC(C)n1c(NCc2nc3ccccc3n2C)nc2ccccc21 [Compound 7] | 
35 | 2.2 | Cc1cc(C2N=C(N)Nc3nc4ccccc4n32)c(C)n1-c1ccccc1Cl (centres unmarked) [Compound 6] | 
36 | 1.6 | NC1=NC2(CCC(c3ccccc3)CC2)n2c(nc3ccccc32)N1 (centres unmarked) [Compound 20] | 
37 | 1.9 | Nc1[nH]nc2nc(NCc3ccccc3)c3c(c12)CCN(Cc1ccccc1)C3 [Compound 11] | 
